Experiments:
iNOS = iNOS mRNA expression in LPS-stimulated RAW 264.7 macrophages; type: cell-based; settings: 0.1 μg/mL E. coli-derived LPS, 25 μM compound, FIGS. 3a and 3b
Procedure: (§1) RAW 264.7 macrophages were treated with 0.1 μg/mL of E. coli-derived LPS and 25 μM of Compounds A1 to A6, B1 to B6, or C1 to C6, respectively. Then, the mRNA expression level of the inflammatory cytokine TNFα was observed through RT-PCR.
(§2) FIGS. 2a and 2b show the result of representing the mRNA expression level of COX2. FIGS. 3a and 3b show the result of representing the mRNA expression level of iNOS.

COX2 = COX2 mRNA expression in LPS-stimulated RAW 264.7 macrophages; type: cell-based; settings: 0.1 μg/mL E. coli-derived LPS, 25 μM compound, FIGS. 2a and 2b
Procedure: as §1, §2

MCP1 = MCP1 mRNA expression in LPS-stimulated RAW 264.7 macrophages; type: cell-based; settings: 0.1 μg/mL E. coli-derived LPS, 25 μM compound, FIG. 6
nitric oxide (NO) = test: NO level in LPS-stimulated RAW 264.7 macrophages; type: cell-based; settings: 0.1 μg/mL E. coli-derived LPS, 25 μM compound, FIGS. 7a and 7b
Procedure: as §1
Nitric oxide (NO), which is increased by LPS stimulation in RAW 264.7 macrophages, is one of the causes of inflammatory bowel disease along with inflammatory cytokines. Therefore, in Experimental Example 3, it was confirmed in the same manner as in Experimental Example 1 whether NO produced by LPS stimulation could be reduced by the compound according to the present invention.
FIGS. 7a and 7b show the results of observing NO concentration (μM).

IL-1β = IL-1β mRNA expression in LPS-stimulated RAW 264.7 macrophages; type: cell-based; settings: 0.1 μg/mL E. coli-derived LPS, 25 μM compound, FIG. 5
TNFα = TNFα mRNA expression in LPS-stimulated RAW 264.7 macrophages (RT-PCR); type: cell-based; settings: 0.1 μg/mL E. coli-derived LPS, 25 μM compound, FIGS. 1a to 1c
Procedure: as §1

[1] = system: free radicals and NO formation; settings: disclosed in Cheng et al., Biochemical Pharmacology, 2001, Vol. 61, 939-946; cited from earlier work
IL-1α = IL-1α mRNA expression in LPS-stimulated RAW 264.7 macrophages; type: cell-based; settings: 0.1 μg/mL E. coli-derived LPS, 25 μM compound, FIG. 4

CC(C)=CCc1cc(C(=O)/C=C/c2ccc(O)c(O)c2)c(O)cc1O [Compound A1, broussochalcone A]
mRNA expression level of iNOS (iNOS): suppressed | mRNA expression level of COX2 (COX2): suppressed | mRNA expression level of MCP1 (MCP1): suppressed | NO level increased by LPS stimulation (nitric oxide (NO)): suppressed | mRNA expression level of IL-1β (IL-1β): suppressed | increase in the mRNA expression level of TNFα induced by LPS stimulation (TNFα): suppressed | excessive free radicals and NO formation [1]: inhibits | mRNA expression level of IL-1α (IL-1α): suppressed

Reference: patent publication US20230125487A1, “COMPOSITION FOR TREATING OR PREVENTING INFLAMMATORY BOWEL DISEASE” (FUGENBIO CO., LTD., priority 2019, published 2023)
